Series [1] can be described thus: Stability of peptides in Fasted-State Simulated Intestinal Fluid (FaSSIF). The following applies: FaSSIF with 10 mg/ml pancreatin; t=30 mins, 37° C., pH 6.5, 10 mg/ml pancreatin. The series is classed as in vitro ADME.
The target of another series is T1, human GLP1 receptor (Homo sapiens, UniProt P43220).
T1 construct: expressed in transfected cells; host or cells: HEK cells, BacMam virus transduction
Briefly: cAMP accumulation assay, functional agonism of human GLP1 receptor. To be noted: HEK cells infected with human GLP1 receptor BacMam virus, HTRF cAMP; for Emax: HEK293, read-out: Human GLP-1R agonist cAMP Emax; for EC50: read-out: Human GLP-1R agonist cAMP pEC50 (converted). The series is classed as cell-based. Put shortly:
(§1)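 Steps: infect HEK cells with human GLP1 or GLP2 receptor BacMam for 24 hours; freeze; resuspend in HBSS with 0.5 mM IBMX; incubate with agonist 45 min at 37° C; lyse with HTRF detection reagents and read cAMP.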
Background: Cyclic AMP is a second messenger, typically raised through Gs and lowered through Gi signalling.

The target in another series is T2, human GLP2 receptor (Homo sapiens, UniProt O95838).
T2 construct: expressed in transfected cells; host or cells: HEK cells, BacMam virus transduction
T2 sequence (O95838 1-553): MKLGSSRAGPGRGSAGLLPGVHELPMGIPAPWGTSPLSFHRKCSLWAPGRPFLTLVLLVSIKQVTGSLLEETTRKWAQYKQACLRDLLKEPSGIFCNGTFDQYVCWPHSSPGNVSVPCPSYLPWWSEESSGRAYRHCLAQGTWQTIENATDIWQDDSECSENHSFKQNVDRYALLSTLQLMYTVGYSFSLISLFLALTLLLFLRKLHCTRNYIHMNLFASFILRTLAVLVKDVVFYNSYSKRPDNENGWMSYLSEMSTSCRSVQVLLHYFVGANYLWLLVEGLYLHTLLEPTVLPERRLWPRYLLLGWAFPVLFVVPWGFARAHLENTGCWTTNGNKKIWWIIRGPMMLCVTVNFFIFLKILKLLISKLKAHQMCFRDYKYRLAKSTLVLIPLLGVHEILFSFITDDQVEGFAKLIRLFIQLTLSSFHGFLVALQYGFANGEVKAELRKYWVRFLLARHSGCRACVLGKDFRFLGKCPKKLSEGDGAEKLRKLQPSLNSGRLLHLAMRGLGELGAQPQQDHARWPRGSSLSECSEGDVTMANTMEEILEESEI
Briefly: cAMP accumulation assay, functional agonism of human GLP2 receptor. The series is classed as cell-based. To be noted: HEK cells infected with human GLP2 receptor BacMam virus, HTRF cAMP; for Emax: HEK293, read-out: Human GLP-2R agonist cAMP Emax; for EC50: read-out: Human GLP-2R agonist cAMP pEC50 (converted). Put shortly:
as §1

The target of the next series is T3, mouse GLP2 receptor (Mus musculus, UniProt Q5IXF8).
T3 construct: expressed in transfected cells; host or cells: HEK cells, transient transfection with GeneJuice
T3 sequence (Q5IXF8 1-512): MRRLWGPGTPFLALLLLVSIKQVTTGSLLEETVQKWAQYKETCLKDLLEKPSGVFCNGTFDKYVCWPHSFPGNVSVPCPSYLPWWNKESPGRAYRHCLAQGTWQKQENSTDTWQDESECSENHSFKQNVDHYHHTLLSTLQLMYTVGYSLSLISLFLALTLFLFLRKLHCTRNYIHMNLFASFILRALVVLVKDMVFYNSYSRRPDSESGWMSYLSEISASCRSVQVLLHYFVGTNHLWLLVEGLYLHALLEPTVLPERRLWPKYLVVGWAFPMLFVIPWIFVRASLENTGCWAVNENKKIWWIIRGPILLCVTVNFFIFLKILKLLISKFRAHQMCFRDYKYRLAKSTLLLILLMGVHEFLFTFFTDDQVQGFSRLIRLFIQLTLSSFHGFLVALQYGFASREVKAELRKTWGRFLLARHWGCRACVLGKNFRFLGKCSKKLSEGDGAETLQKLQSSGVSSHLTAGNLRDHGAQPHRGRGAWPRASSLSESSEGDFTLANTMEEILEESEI
The series can be described thus: cAMP accumulation assay, functional agonism of mouse GLP2 receptor. The following applies: HEK cells transiently transfected with mouse GLP2 receptor, HTRF cAMP; for Emax: HEK293, read-out: Mouse GLP-2R agonist cAMP Emax; for EC50: read-out: Mouse GLP-2R agonist cAMP pEC50 (converted). The series is classed as cell-based. Put shortly:
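Transiently transfected HEK cells (24 h, frozen, 8000/well) in HBSS with 0.5 mM IBMX exposed to compound concentration series for 45 min at 37 °C. cAMP measured by HTRF after lysis and 1 h at RT; pEC50 from four-parameter concentration-response fit.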

Positions of bridges follow the written chain, without caps; N, C: chain ends. Non-standard residues stand in square brackets, D forms with d. Residues, ends and D or L forms follow the SMILES beside them. *: point of attachment. Malonyl(2,2-Me2,histaminyl) = CC(C)(C(=O)NCCc1cnc[nH]1)C(=O)*; Ala(1H-tetrazol-5-yl) = N[C@@H](Cc1nnn[nH]1)C(=O)O; Nle = CCCC[C@H](N)C(=O)O; Aib = CC(C)(N)C(=O)O

T1 sequence (P43220 24-463): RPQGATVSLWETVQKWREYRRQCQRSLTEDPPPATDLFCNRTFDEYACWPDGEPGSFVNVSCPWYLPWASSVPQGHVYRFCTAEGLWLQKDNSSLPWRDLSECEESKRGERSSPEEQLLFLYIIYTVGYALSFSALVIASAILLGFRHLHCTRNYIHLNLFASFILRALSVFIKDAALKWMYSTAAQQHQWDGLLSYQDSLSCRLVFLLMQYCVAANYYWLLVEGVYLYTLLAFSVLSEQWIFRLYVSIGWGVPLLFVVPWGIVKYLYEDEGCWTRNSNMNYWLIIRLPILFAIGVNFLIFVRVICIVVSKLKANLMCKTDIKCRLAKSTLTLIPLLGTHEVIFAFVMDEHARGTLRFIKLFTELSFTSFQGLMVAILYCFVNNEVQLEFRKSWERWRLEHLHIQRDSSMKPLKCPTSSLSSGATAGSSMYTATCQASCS

As usually defined, the fraction remaining is the share of the starting amount still present when the sample was taken. One may read the Emax as the maximal effect, on the per cent scale that the assay sets. Turning to `CCCC[C@@H]1NC(=O)[C@H](CCC(=O)O)NC(=O)[C@@H](NC(=O)[C@H](CO)NC(=O)[C@H](Cc2ccccc2)NC(=O)[C@H](CO)NC(=O)CNC(=O)[C@H](CC(=O)O)NC(=O)C(C)(C)NC(=O)[C@@H](N)Cc2c[nH]cn2)CCCCNC(=O)C[C@@H](C(=O)N[C@H](C(=O)N[C@@H](CC(C)C)C(=O)N[C@@H](CC(=O)O)C(=O)N[C@H]2CCC(=O)NCCCC[C@@H](C(=O)N[C@@H](CC(=O)O)C(=O)N[C@@H](Cc3ccccc3)C(=O)N[C@H](C(=O)N[C@@H](CC(N)=O)C(=O)N[C@@H](Cc3c[nH]c4ccccc34)C(=O)N[C@@H](CC(C)C)C(=O)N[C@H](C(=O)N[C@@H](CCC(N)=O)C(=O)N[C@H]3CCC(=O)NCCCC[C@@H](C(N)=O)NC(=O)[C@H]([C@@H](C)O)NC(=O)[C@H]([C@@H](C)CC)NC(=O)[C@H](CCCCN)NC3=O)[C@@H](C)CC)[C@@H](C)CC)NC(=O)[C@H](C)NC(=O)[C@H](C)NC(=O)[C@H](CCCCN)NC2=O)[C@@H](C)CC)NC(=O)[C@@H](Cc2ccccc2)NC1=O` [Example 4] (H-H[Aib]DGSFSKE[Nle][dF]DILDEKAAKDFINWLIQEKITK-NH2; lactam 8-12, 16-20, 29-33 (inferred); C-terminus assumed), the amount remaining at 0.5 h in series [1] is 4.3%. Moreover, at human GLP1 receptor, the maximal response (Emax) was 94.7% and the EC50 is 0.501 nM. On human GLP2 receptor, the maximal response (Emax) came to 103% and the EC50 is 0.01 nM.
Consider `CCCC[C@@H]1NC(=O)[C@H](CCC(=O)O)NC(=O)[C@H](CC(=O)O)NC(=O)[C@@H](NC(=O)[C@H](Cc2ccccc2)NC(=O)[C@H](CO)NC(=O)CNC(=O)[C@H](CC(=O)O)NC(=O)C(C)(C)NC(=O)[C@@H](N)Cc2c[nH]cn2)CCC(=O)NCCCC[C@@H](C(=O)N[C@H]2CCC(=O)NCCCC[C@@H](C(=O)N[C@H]3CCCCNC(=O)C[C@@H](C(=O)N[C@@H](Cc4ccccc4)C(=O)N[C@H](C(=O)N[C@H]4CCC(=O)NCCCC[C@@H](C(=O)N[C@H]5CCCCNC(=O)CC[C@@H](C(N)=O)NC(=O)[C@H]([C@@H](C)O)NC(=O)[C@H]([C@@H](C)CC)NC(=O)[C@H](CCCCN)NC5=O)NC(=O)[C@H]([C@@H](C)CC)NC(=O)[C@H](CC(C)C)NC(=O)[C@H](Cc5c[nH]c6ccccc56)NC4=O)[C@@H](C)CC)NC(=O)[C@H](CCCCN)NC(=O)[C@H](C)NC(=O)[C@H](C)NC3=O)NC(=O)[C@H](CC(=O)O)NC(=O)[C@H](CC(C)C)NC(=O)[C@H]([C@@H](C)CC)NC2=O)NC1=O` [Example 77] (H-H[Aib]DGSFEDE[Nle]KEILDKKAAKDFIEWLIKKKITE-NH2; lactam 7-11, 12-16, 17-21, 24-28, 29-33; N-terminus and C-terminus assumed), for which the maximum response (Emax) at human GLP1 receptor amounted to 97.1%; on mouse GLP2 receptor, 102%; on human GLP2 receptor, 102%. In addition, the EC50 at human GLP1 receptor was 0.501 nM; on mouse GLP2 receptor, 3.16 nM; on human GLP2 receptor it was 0.0631 nM.
As for `CCCC[C@H](NC(=O)[C@H](CCC(=O)O)NC(=O)[C@@H]1CCCCNC(=O)CC[C@H](NC(=O)[C@H](Cc2nn[nH]n2)NC(=O)C(C)(C)C(=O)NCCc2c[nH]cn2)C(=O)N[C@@H](CO)C(=O)N[C@@H](Cc2ccccc2)C(=O)N[C@@H](CO)C(=O)N1)C(=O)N[C@H](Cc1ccccc1)C(=O)N[C@H]1CCC(=O)NCCCC[C@@H](C(=O)N[C@H]2CCC(=O)NCCCC[C@@H](C(=O)N[C@@H](CC(=O)O)C(=O)N[C@@H](Cc3ccccc3)C(=O)N[C@H](C(=O)N[C@H]3CCC(=O)NCCCC[C@@H](C(=O)N[C@H]4CCCCNC(=O)CC[C@@H](C(N)=O)NC(=O)[C@H]([C@@H](C)O)NC(=O)[C@H]([C@@H](C)CC)NC(=O)[C@H](CCCCN)NC4=O)NC(=O)[C@H]([C@@H](C)CC)NC(=O)[C@H](CC(C)C)NC(=O)[C@H](Cc4c[nH]c5ccccc45)NC3=O)[C@@H](C)CC)NC(=O)[C@H](C)NC(=O)[C@H](C)NC2=O)NC(=O)[C@H](CC(=O)O)NC(=O)[C@H](CC(C)C)NC(=O)[C@H]([C@@H](C)CC)NC1=O` [Example 78], the Emax was determined as 95.5% on human GLP1 receptor, 83.1% at mouse GLP2 receptor and 103% on human GLP2 receptor. Moreover, the EC50 on human GLP1 receptor was 0.251 nM; at mouse GLP2 receptor it was 2 nM; on human GLP2 receptor, 0.0251 nM.
For the compound `CCCC[C@H](NC(=O)[C@H](CCC(=O)O)NC(=O)[C@@H]1CCCCNC(=O)CC[C@H](NC(=O)[C@H](Cc2nn[nH]n2)NC(=O)C(C)(C)C(=O)NCCc2c[nH]cn2)C(=O)N[C@@H](CO)C(=O)N[C@@H](Cc2ccccc2)C(=O)N[C@@H](CO)C(=O)N1)C(=O)N[C@H](Cc1ccccc1)C(=O)N[C@H]1CCC(=O)NCCCC[C@@H](C(=O)N[C@H]2CCCCNC(=O)C[C@@H](C(=O)N[C@@H](Cc3ccccc3)C(=O)N[C@H](C(=O)N[C@H]3CCC(=O)NCCCC[C@@H](C(=O)N[C@H]4CCCCNC(=O)CC[C@@H](C(N)=O)NC(=O)[C@H]([C@@H](C)O)NC(=O)[C@H]([C@@H](C)CC)NC(=O)[C@H](CCCCN)NC4=O)NC(=O)[C@H]([C@@H](C)CC)NC(=O)[C@H](CC(C)C)NC(=O)[C@H](Cc4c[nH]c5ccccc45)NC3=O)[C@@H](C)CC)NC(=O)[C@H](CCCCN)NC(=O)[C@H](C)NC(=O)[C@H](C)NC2=O)NC(=O)[C@H](CC(=O)O)NC(=O)[C@H](CC(C)C)NC(=O)[C@H]([C@@H](C)CC)NC1=O` [Example 79] ({Malonyl(2,2-Me2,histaminyl)}-[Ala(1H-tetrazol-5-yl)]ESFSKE[Nle][dF]EILDKKAAKDFIEWLIKKKITE-NH2; lactam 2-6, 10-14, 15-19, 22-26, 27-31 (inferred); C-terminus assumed), the results for the Emax on human GLP1 receptor, at mouse GLP2 receptor and at human GLP2 receptor were 97.3%, 74.2% and 103%, respectively. For the same compound, the EC50 on human GLP1 receptor is 0.251 nM; on mouse GLP2 receptor, 3.16 nM; on human GLP2 receptor, 0.0316 nM.
For the compound `CCCC[C@H](NC(=O)[C@H](CCC(=O)O)NC(=O)[C@H](CC(=O)O)NC(=O)[C@H](CO)NC(=O)[C@H](Cc1ccccc1)NC(=O)[C@H](CO)NC(=O)CNC(=O)[C@H](CC(=O)O)NC(=O)C(C)(C)NC(=O)[C@@H](N)Cc1c[nH]cn1)C(=O)N[C@H](Cc1ccccc1)C(=O)N[C@H](C(=O)N[C@H](C(=O)N[C@@H](CC(C)C)C(=O)N[C@@H](CC(=O)O)C(=O)N[C@H]1CCCCNC(=O)CC[C@@H](C(=O)N[C@@H](CC(=O)O)C(=O)N[C@@H](Cc2ccccc2)C(=O)N[C@H](C(=O)N[C@@H](CC(N)=O)C(=O)N[C@@H](Cc2c[nH]c3ccccc23)C(=O)N[C@@H](CC(C)C)C(=O)N[C@H](C(=O)N[C@@H](CCC(N)=O)C(=O)N[C@H](C(=O)N[C@@H](CCCCN)C(=O)N[C@H](C(=O)N[C@H](C(=O)N[C@@H](CC(=O)O)C(N)=O)[C@@H](C)O)[C@@H](C)CC)[C@@H](C)O)[C@@H](C)CC)[C@@H](C)CC)NC(=O)[C@H](C)NC(=O)[C@H](C)NC(=O)[C@H](CCCCN)NC1=O)[C@@H](C)CC)[C@@H](C)O` [Example 102] (H-H[Aib]DGSFSDE[Nle][dF]TILDKKAAEDFINWLIQTKITD-NH2; lactam 16-20; N-terminus and C-terminus assumed), the Emax on human GLP1 receptor came to 99.3%; on mouse GLP2 receptor, 99%; at human GLP2 receptor, 101%. The EC50 was 20 nM at human GLP1 receptor, 0.02 nM on mouse GLP2 receptor and 0.00126 nM on human GLP2 receptor.

Values taken from patent US20240270809A1, “ORAL GLP RECEPTOR AGONISTS” (priority 2020, published 2024).
